Experimental findings from patent US11053281B2, “Peptoid affinity ligands” (MIKE-ANN, LLC, priority 2016, dated 2021) are described below.

One may read the Kd as the equilibrium constant for the complex coming apart.

Where two headings read alike, the source gives them in different places. *1 amine or outer side, *2 acyl side, *3 side chain or, on linkers, in order; H or OH if unused. Where a SMILES comes first, the peptide text is derived from it. [ ]: non-standard residue; d: D form. Gly(N(CH2)2(3-indolyl)) = O=C(O)CNCCc1c[nH]c2ccccc12; Gly(N-(CH2)3-guanidino) = N=C(N)NCCCNCC(=O)O; NGly(CH2(3-pyridyl)) = O=C(O)CNCc1cccnc1; N(CH2CH2COOH)Gly = O=C(O)CCNCC(=O)O; Cysteamide = C(CS[*:3])N[*:1]; Nphe = O=C(O)CNCc1ccccc1; NPrGly = CCCNCC(=O)O; Nme = COCCNCC(=O)O; Sar = CNCC(=O)O

The experiment has as its system polyclonal human IgG. Description: Adsorption isotherm of peptoid affinity resins against polyclonal human IgG. It counts as binding. Also on record: Qmax: unit not given here. The following applies: for Qmax: maximum capacity (qmax) of resin from isotherm fit; for Kd: peptoid ligand conjugated to chromatographic resin, IgG in PBS, hyperbola fit of isotherm, Kd given in molar, read-out: Kd x 10^−6. The method, then:
The affinity for the peptoid-resin combinations was determined by measuring the adsorption isotherm of each resin against polyclonal human IgG (Pakimna et al., J Applied Sci., 12(11): 1136-1141, 2012). Briefly, 0.050 mL of 50% resin slurry was pipetted into 6 individual wells of a 96-well filter plate (0.45 micron, PVDF, Harvard Apparatus). The resin was washed with 2×250 μL PBS using a vacuum manifold. To an individual well, 0.25 mL of a human polyclonal IgG solution at different concentrations (10, 5, 2.5, 1.25, 0.625, and 0.3125 mg/mL) was added. The resin/IgG suspension was agitated gently on a rocking table for 30 minutes. The fluid was then collected via vacuum, and the resin was washed with 0.25 mL of PBS. The filtrate and wash were then analyzed by the BCA assay to determine the residual IgG concentration relative to the starting concentration of the solution.
The equilibrium concentrations were then used to determine the capacity of the resin at each IgG concentration using the following formula: q=Volumesample×(Initial Concentration−Equilibrium Concentration)/Volumeresin
A plot of q versus equilibrium concentration was generated and the data fit with a hyperbola to determine the affinity constant (Kd) and the maximum capacity (qmax) according to the below formula, where C=the equilibrium concentration of antibody in solution: q=qmax×C/(kd+C) Typical adsorption isotherm is shown in FIG. 2. Tabulated Kd and qmax data is found in Table 2.

In the case of `CCCN(CC(=O)N(CCc1c[nH]c2ccccc12)CC(=O)NCCS)C(=O)CN(CCc1c[nH]c2ccccc12)C(=O)CN(C)C(=O)CN(Cc1cccnc1)C(=O)CN(CCc1c[nH]c2ccccc12)C(=O)CNCCCNC(=N)N` [Ligand 18-28-6] (H-[Gly(N-(CH2)3-guanidino)][Gly(N(CH2)2(3-indolyl))][NGly(CH2(3-pyridyl))][Sar][Gly(N(CH2)2(3-indolyl))][NPrGly][Gly(N(CH2)2(3-indolyl))]-Cysteamide), for the setting “Table 2”, the Qmax was determined as 42 and the Kd stood at 2.6 µM.

Regarding `CCCN(CC(=O)N(CCc1c[nH]c2ccccc12)CC(=O)NCCS)C(=O)CN(CCc1c[nH]c2ccccc12)C(=O)CN(C)C(=O)CN(CCCNC(=N)N)C(=O)CN(CCc1c[nH]c2ccccc12)C(=O)CNCCC(=O)O` [Ligand 18-28-7] (H-[N(CH2CH2COOH)Gly][Gly(N(CH2)2(3-indolyl))][Gly(N-(CH2)3-guanidino)][Sar][Gly(N(CH2)2(3-indolyl))][NPrGly][Gly(N(CH2)2(3-indolyl))]-Cysteamide), under “Table 3”, the Qmax stood at 42 and the Kd is 5.6 µM.

As for `CN(CC(=O)NCCS)C(=O)CN(CCC(=O)O)C(=O)CN(Cc1cccnc1)C(=O)CN(CCCNC(=N)N)C(=O)CN(CCC(=O)O)C(=O)CN(CCc1c[nH]c2ccccc12)C(=O)CNCc1cccnc1` [Ligand 18-28-9] (H-[NGly(CH2(3-pyridyl))][Gly(N(CH2)2(3-indolyl))][N(CH2CH2COOH)Gly][Gly(N-(CH2)3-guanidino)][NGly(CH2(3-pyridyl))][N(CH2CH2COOH)Gly][Sar]-Cysteamide), for the setting “Table 2”, the Qmax was 41 and the Kd was found to be 10 µM.

On to `COCCN(CC(=O)N(CC(=O)N(CCCNC(=N)N)CC(=O)N(CC(=O)N(CCC(=O)O)CC(=O)N(C)CC(=O)NCCS)Cc1cccnc1)Cc1ccccc1)C(=O)CNCc1cccnc1` [Ligand 18-28-12] (H-[NGly(CH2(3-pyridyl))][Nme][Nphe][Gly(N-(CH2)3-guanidino)][NGly(CH2(3-pyridyl))][N(CH2CH2COOH)Gly][Sar]-Cysteamide), for which, for the setting “Table 2”, the Qmax was 41 and the Kd came to 16 µM.
